# Laboratory results: patent publication US20250197384A1, “AZOLE COMPOUND AND ANTIFUNGAL AGENT” (NIHON NOHYAKU CO., LTD., priority 2022, published 2025)
# Columns and labels:
# Assay type in all cases: cell-based
# [1] = system: Aspergillus fumigatus TIMM0063; test: In vitro anti-Aspergillus activity test; settings: for minimum inhibitory concentration against various fungi (MIC) A. fumigatus / MIC: Table 22, 35° C. for 48 hr, alamar Blue, minimum concentration showing 80% or more inhibition; for MIC: Aspergillus fumigatus, read-out: minimum inhibitory concentration against various fungi (MIC) A. fumigatus; for A. fumigatus (MIC): 80% or more inhibition, unit inferred
# Protocol: Aspergillus fumigatus TIMM0063 was used as the strain. The test fungi were cultured on a Potato dextrose agar slant medium at 35° C. for 4 days, and then sterilized saline containing 0.1% (v/v) Tween 80 was added to release the conidia. This conidial suspension was filtered through sterile gauze, and the number of conidia was counted using a hemocytometer. The same solution was adjusted to a conidial concentration of 1×10^6 conidia/mL, and this was used as an inoculum. Each compound was dissolved in dimethyl sulfoxide to a predetermined concentration, and diluted 50-fold with 0.165 M MOPS buffered RPMI 1640 liquid medium, and each diluted solution was dispensed into a 96-well microplate by each 100 μL. The inoculum was diluted 50-fold with 0.165 M MOPS buffered RPMI 1640 liquid medium containing 20% alamar Blue™, and the diluted solution was inoculated into the 96-well microplate containing the compound by each 100 μL (final inoculum amount 1.0×10^4 conidia/mL). After static culture at 35° C. for 48 hr, the degree of color development of the alamar Blue™ was measured using a microplate reader (O.D. 570-595 nm), and the minimum concentration showing 80% or more inhibition was defined as the minimum inhibitory concentration (MIC).
# [2] = system: Candida albicans NBRC1270; test: In vitro anti-Candida activity test; settings: for minimum inhibitory concentration against various fungi (MIC) C. albicans / MIC: Table 22, 35° C. for 24 hr, alamar Blue, minimum concentration showing 80% or more inhibition; for MIC: Candida albicans, read-out: minimum inhibitory concentration against various fungi (MIC) C. albicans; for C. albicans (MIC): 80% or more inhibition, unit inferred
# Protocol: Candida albicans NBRC1270 was used as the strain. The test fungi were cultured on a Sabouraud dextrose agar slant medium at 35° C. for 24 hr, and then suspended in sterilized saline. The number of cells in this suspension was counted using a hemocytometer, and the same suspension was adjusted to a cell concentration of 1.5×10^5 cells/mL, and this was used as an inoculum. Each compound was dissolved in dimethyl sulfoxide to a predetermined concentration, and diluted 50-fold with 0.165 M MOPS buffered RPMI 1640 liquid medium, and each diluted solution was dispensed into a 96-well microplate by each 100 μL. The inoculum was diluted 50-fold with 0.165 M MOPS buffered RPMI 1640 liquid medium containing 20% alamar Blue™, and the diluted solution was inoculated into the 96-well microplate containing the compound by each 100 μL (final inoculum amount 1.5×10^3 cells/mL). After static culture at 35° C. for 24 hr, the degree of color development of the alamar Blue™ was measured using a microplate reader (O.D. 570-595 nm), and the minimum concentration showing 80% or more inhibition was defined as the minimum inhibitory concentration (MIC).
# [3] = system: Trichophyton rubrum NBRC6203; test: In vitro anti-tinea fungus activity test (T. rubrum); settings: Table 22, 27° C. for 5 days, alamar Blue, minimum concentration showing 80% or more inhibition; for MIC: Trichophyton rubrum, 120 h, read-out: minimum inhibitory concentration against various fungi (MIC) T. rubrum
# Protocol: (§1) Trichophyton rubrum NBRC6203 and Trichophyton mentagrophytes TIMM2789 were used as the strains. The test fungi were cultured on a Sabouraud dextrose agar slant medium at 27° C. for 10-13 days, and then suspended in sterilized saline. The number of cells in this suspension was counted using a hemocytometer, and the same suspension was adjusted to a cell concentration of 2×10^6 conidia/mL, and this was used as an inoculum. Each compound was dissolved in dimethyl sulfoxide to a predetermined concentration, and diluted 50-fold with 0.165 M MOPS buffered RPMI 1640 liquid medium, and each diluted solution was dispensed into a 96-well microplate by each 100 μL. The inoculum was diluted 50-fold with 0.165 M MOPS buffered RPMI 1640 liquid medium containing 20% alamar Blue™, and the diluted solution was inoculated into the 96-well microplate containing the compound by each 100 μL (final inoculum amount 2×10^4 conidia/mL). After static culture at 27° C. for 3 days (Trichophyton mentagrophytes) or for 5 days (Trichophyton rubrum), the degree of color development of the alamar Blue™ was measured using a microplate reader (O.D. 570-595 nm), and the minimum concentration showing 80% or more inhibition was defined as the minimum inhibitory concentration (MIC).
# [4] = system: Trichophyton mentagrophytes TIMM2789; test: In vitro anti-tinea fungus activity test (T. mentagrophytes); settings: Table 22, 27° C. for 3 days, alamar Blue, minimum concentration showing 80% or more inhibition; for MIC: Trichophyton mentagrophytes, 72 h, read-out: minimum inhibitory concentration against various fungi (MIC) T. mentagrophytes
# Protocol: as §1
smiles,measurement,setting,value
N#C/C(=C1/SCC(c2ncc(Br)cc2Cl)S1)n1ccnc1 (racemic) [Compound No. 1],minimum inhibitory concentration against various fungi (MIC) A. fumigatus,[1],1.3 ng/mL
same,minimum inhibitory concentration against various fungi (MIC) C. albicans,[2],100 ng/mL
same,minimum inhibitory concentration against various fungi (MIC) T. rubrum,[3],≤1 ng/mL
same,minimum inhibitory concentration against various fungi (MIC) T. mentagrophytes,[4],≤1 ng/mL
N#C/C(=C1/SCC(c2ncc(N)cc2Cl)S1)n1ccnc1 (racemic) [Compound No. 2],minimum inhibitory concentration against various fungi (MIC) A. fumigatus,[1],10 ng/mL
same,minimum inhibitory concentration against various fungi (MIC) C. albicans,[2],1000 ng/mL
same,minimum inhibitory concentration against various fungi (MIC) T. rubrum,[3],10 ng/mL
same,minimum inhibitory concentration against various fungi (MIC) T. mentagrophytes,[4],10 ng/mL
"CCCC1CC(c2cnc(C3CS/C(=C(/C#N)n4ccnc4)S3)c(Cl)c2)=NO1 (centres unmarked) [Compound No. 6, (E)-2-{4-[3-chloro-5-(5-propyl-4,5-dihydroisoxazol-3-yl)pyridin-2-yl]-1,3-dithiolan-2-ylidene}-2-(1H-imidazol-1-yl)acetonitrile]",MIC,[1],5 ng/mL
same,MIC,[2],10 ng/mL
same,MIC,[3],10 ng/mL
same,MIC,[4],10 ng/mL
"CCOC(=O)Nc1cnc(C2CS/C(=C(/C#N)n3cncn3)S2)c(F)c1 (centres unmarked) [Compound No. 10, ethyl (E)-(6-{2-[cyano(1H-1,2,4-triazol-1-yl)methylene]-1,3-dithiolan-4-yl}-5-fluoropyridin-3-yl)carbamate]",MIC,[1],25 ng/mL
same,MIC,[2],50 ng/mL
same,MIC,[3],10 ng/mL
same,MIC,[4],10 ng/mL
"COC(=O)Nc1cnc(C2CS/C(=C(/C#N)n3ccnc3)S2)c(Cl)c1 (centres unmarked) [Compound No. 15, methyl (E)-(5-chloro-6-{2-[cyano(1H-imidazol-1-yl)methylene]-1,3-dithiolan-4-yl}pyridin-3-yl)carbamate]",MIC,[1],5 ng/mL
same,MIC,[2],2.5 ng/mL
same,MIC,[3],10 ng/mL
same,MIC,[4],10 ng/mL
"CCO/N=C/c1cnc(C2CS/C(=C(/C#N)n3ccnc3)S2)c(Cl)c1 (centres unmarked) [Compound No. 25, (E)-2-(4-{3-chloro-5-[(E)-(ethoxyimino)methyl]pyridin-2-yl}-1,3-dithiolan-2-ylidene)-2-(1H-imidazol-1-yl)acetonitrile]",MIC,[1],2.5 ng/mL
same,MIC,[2],0.6 ng/mL
same,MIC,[3],≤ 1 ng/mL
same,MIC,[4],≤ 1 ng/mL
"N#C/C(=C1/SCC(c2ncc(/C(N)=N/OCc3ccccc3)cc2Cl)S1)n1ccnc1 (centres unmarked) [Compound No. 27, (Z)—N′-(benzyloxy)-5-chloro-6-{(E)-2-[cyano(1H-imidazol-1-yl)methylene]-1,3-dithiolan-4-yl}nicotinimidamide]",MIC,[1],5 ng/mL
same,MIC,[2],1.3 ng/mL
same,MIC,[3],≤ 1 ng/mL
same,MIC,[4],≤ 1 ng/mL
C=Cc1cnc(C2CS/C(=C(/C#N)n3ccnc3)S2)c(Cl)c1 (centres unmarked) [compound 3],minimum inhibitory concentration against various fungi (MIC) A. fumigatus,[1],2.5 ng/mL
same,minimum inhibitory concentration against various fungi (MIC) C. albicans,[2],100 ng/mL
same,minimum inhibitory concentration against various fungi (MIC) T. rubrum,[3],≤1 ng/mL
same,minimum inhibitory concentration against various fungi (MIC) T. mentagrophytes,[4],≤1 ng/mL
N#CCOc1cnc(C2CS/C(=C(/C#N)n3ccnc3)S2)c(Cl)c1 (centres unmarked) [compound 4],minimum inhibitory concentration against various fungi (MIC) A. fumigatus,[1],5 ng/mL
same,minimum inhibitory concentration against various fungi (MIC) C. albicans,[2],1000 ng/mL
same,minimum inhibitory concentration against various fungi (MIC) T. rubrum,[3],10 ng/mL
same,minimum inhibitory concentration against various fungi (MIC) T. mentagrophytes,[4],10 ng/mL
COC(=O)Nc1cnc(C2CS/C(=C(/C#N)n3cncn3)S2)c(Cl)c1 (centres unmarked) [compound 7],minimum inhibitory concentration against various fungi (MIC) A. fumigatus,[1],5 ng/mL
same,minimum inhibitory concentration against various fungi (MIC) C. albicans,[2],10 ng/mL
same,minimum inhibitory concentration against various fungi (MIC) T. rubrum,[3],≤1 ng/mL
same,minimum inhibitory concentration against various fungi (MIC) T. mentagrophytes,[4],10 ng/mL
CCOC(=O)Nc1cnc(C2CS/C(=C(/C#N)n3cncn3)S2)c(Cl)c1 (centres unmarked) [compound 11],minimum inhibitory concentration against various fungi (MIC) A. fumigatus,[1],5 ng/mL
same,minimum inhibitory concentration against various fungi (MIC) C. albicans,[2],10 ng/mL
same,minimum inhibitory concentration against various fungi (MIC) T. rubrum,[3],≤1 ng/mL
same,minimum inhibitory concentration against various fungi (MIC) T. mentagrophytes,[4],10 ng/mL
CC(C)(C)OC(=O)Nc1cnc(C2CS/C(=C(/C#N)n3cncn3)S2)c(Cl)c1 (centres unmarked) [compound 12],minimum inhibitory concentration against various fungi (MIC) A. fumigatus,[1],100 ng/mL
same,minimum inhibitory concentration against various fungi (MIC) C. albicans,[2],10 ng/mL
same,minimum inhibitory concentration against various fungi (MIC) T. rubrum,[3],10 ng/mL
same,minimum inhibitory concentration against various fungi (MIC) T. mentagrophytes,[4],100 ng/mL
CCOC(=O)Nc1cnc(C2CS/C(=C(/C#N)n3ccnc3)S2)c(Cl)c1 (centres unmarked) [compound 16],minimum inhibitory concentration against various fungi (MIC) A. fumigatus,[1],5 ng/mL
same,minimum inhibitory concentration against various fungi (MIC) C. albicans,[2],2.5 ng/mL
same,minimum inhibitory concentration against various fungi (MIC) T. rubrum,[3],≤1 ng/mL
same,minimum inhibitory concentration against various fungi (MIC) T. mentagrophytes,[4],10 ng/mL
CO/N=C/c1cnc(C2CS/C(=C(/C#N)n3cncn3)S2)c(Cl)c1 (centres unmarked) [compound 19],minimum inhibitory concentration against various fungi (MIC) A. fumigatus,[1],5 ng/mL
same,minimum inhibitory concentration against various fungi (MIC) C. albicans,[2],10 ng/mL
same,minimum inhibitory concentration against various fungi (MIC) T. rubrum,[3],≤1 ng/mL
same,minimum inhibitory concentration against various fungi (MIC) T. mentagrophytes,[4],10 ng/mL
CCOC(=O)Nc1cnc([C@@H]2CS/C(=C(/C#N)n3cncn3)S2)c(Cl)c1 [compound 79],A. fumigatus (MIC),"[1]; Table 23, 35° C. for 48 hr",5 ng/mL
same,C. albicans (MIC),"[2]; Table 23, 35° C. for 24 hr",5 ng/mL
N#C/C(=C1/SC[C@@H](c2ncc(NC(=O)OCC3CC3)cc2Cl)S1)n1cncn1 [compound 92],A. fumigatus (MIC),"[1]; Table 23, 35° C. for 48 hr",2.5 ng/mL
same,C. albicans (MIC),"[2]; Table 23, 35° C. for 24 hr",0.63 ng/mL
CCCOC(=O)Nc1cnc([C@@H]2CS/C(=C(/C#N)n3cncn3)S2)c(Cl)c1 [compound 94],A. fumigatus (MIC),"[1]; Table 23, 35° C. for 48 hr",2.5 ng/mL
same,C. albicans (MIC),"[2]; Table 23, 35° C. for 24 hr",2.5 ng/mL
N#C/C(=C1/SC[C@@H](c2ncc(NC(=O)OCc3ccccc3)cc2Cl)S1)n1cncn1 [compound 100],A. fumigatus (MIC),"[1]; Table 23, 35° C. for 48 hr",2.5 ng/mL
same,C. albicans (MIC),"[2]; Table 23, 35° C. for 24 hr",0.63 ng/mL
N#C/C(=C1/SC[C@@H](c2ncc(NC(=O)OCc3ccccc3)cc2F)S1)n1cncn1 [compound 106],A. fumigatus (MIC),"[1]; Table 23, 35° C. for 48 hr",5 ng/mL
same,C. albicans (MIC),"[2]; Table 23, 35° C. for 24 hr",1.25 ng/mL
CCCOC(=O)Nc1cnc([C@@H]2CS/C(=C(/C#N)n3cncn3)S2)c(F)c1 [compound 110],A. fumigatus (MIC),"[1]; Table 23, 35° C. for 48 hr",5 ng/mL
same,C. albicans (MIC),"[2]; Table 23, 35° C. for 24 hr",10 ng/mL
N#C/C(=C1/SC[C@@H](c2ncc(NC(=O)OCC3CC3(F)F)cc2Cl)S1)n1cncn1 (some centres unmarked) [compound 130],A. fumigatus (MIC),"[1]; Table 24, 35° C. for 48 hr",5 ng/mL
same,C. albicans (MIC),"[2]; Table 24, 35° C. for 24 hr",2.5 ng/mL
N#C/C(=C1/SC[C@@H](c2ncc(NC(=O)OCC3CC3(F)F)cc2F)S1)n1cncn1 (some centres unmarked) [compound 131],A. fumigatus (MIC),"[1]; Table 24, 35° C. for 48 hr",10 ng/mL
same,C. albicans (MIC),"[2]; Table 24, 35° C. for 24 hr",10 ng/mL
N#C/C(=C1/SC[C@@H](c2ncc(NC(=O)OCC3(F)CC3)cc2Cl)S1)n1cncn1 [compound 155],A. fumigatus (MIC),"[1]; Table 25, 35° C. for 48 hr",10 ng/mL
same,C. albicans (MIC),"[2]; Table 25, 35° C. for 24 hr",2.5 ng/mL
